Measured values as given in the supplement of paper PMC10307832.

Experiments:
Experiment in all cases: relative viability (nuclei count vs DMSO), 5 days (fraction); higher = more cells survive
[1] = compound: CC(C)N(CCCNC(=O)Nc1ccc(C(C)(C)C)cc1)C[C@H]1O[C@@H](n2ccc3c(N)ncnc32)[C@H](O)[C@@H]1O + CC(C)C[C@H](NC(=O)[C@H](Cc1ccccc1)NC(=O)c1cnccn1)B(O)O [Bortezomib] (partner 0.002 µM)
How it was run: (§1)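 Lung cancer cell lines were seeded in 1536-well plates and dosed by pin tool the next day, with either a single drug or a fixed anchor-drug dose combined with five library-drug doses (not always all listed) spaced in √10 steps. Five days later, one step fixed the cells and stained their nuclei (final 0.05% Triton X-100, 1% formaldehyde, 1 ug/ml Hoechst), and nuclei were counted on 4× images. Relative viability is the nuclei count in treated wells divided by the count in vehicle wells, and each value is the median of duplicate plates.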

[2] = compound: CC(C)N(CCCNC(=O)Nc1ccc(C(C)(C)C)cc1)C[C@H]1O[C@@H](n2ccc3c(N)ncnc32)[C@H](O)[C@@H]1O + C[C@]1(O)C[C@@H](c2nc(-c3ccc4ccc(-c5ccccc5)nc4c3)c3c(N)nccn32)C1 [Linsitinib] (partner 1 µM)
How it was run: as §1

Shikonin + Tozasertib = compound: CC(C)=CC[C@@H](O)C1=CC(=O)c2c(O)ccc(O)c2C1=O [Shikonin] + Cc1cc(Nc2cc(N3CCN(C)CC3)nc(Sc3ccc(NC(=O)C4CC4)cc3)n2)n[nH]1 [Tozasertib] (partner 0.1 µM)
How it was run: as §1

[3] = compound: CC(C)N(CCCNC(=O)Nc1ccc(C(C)(C)C)cc1)C[C@H]1O[C@@H](n2ccc3c(N)ncnc32)[C@H](O)[C@@H]1O + COc1cc2c(Oc3ccc(NC(=O)C4(C(=O)Nc5ccc(F)cc5)CC4)cc3F)ccnc2cc1OCCCN1CCOCC1 [Foretinib] (partner 0.25 µM)
How it was run: as §1

HCC-78
relative viability ([1]; first compound 0.08 µM): 0.488 | relative viability ([1]; first compound 0.8 µM): 0.213 | relative viability ([1]; first compound 2.53 µM): 0.305 | relative viability ([1]; first compound 8 µM): 0.577 | relative viability ([2]; first compound 0.08 µM): 0.576 | relative viability ([2]; first compound 0.253 µM): 0.437 | relative viability ([2]; first compound 0.8 µM): 0.423 | relative viability ([2]; first compound 2.53 µM): 0.51 | relative viability ([2]; first compound 8 µM): 0.456 | relative viability (Shikonin + Tozasertib; first compound 0.01 µM): 0.465 | relative viability (Shikonin + Tozasertib; first compound 0.1 µM): 0.433 | relative viability (Shikonin + Tozasertib; first compound 0.3162 µM): 0.402 | relative viability (Shikonin + Tozasertib; first compound 1 µM): 0.372 | relative viability ([3]; first compound 0.08 µM): 0.509 | relative viability ([3]; first compound 0.253 µM): 0.497 | relative viability ([3]; first compound 0.8 µM): 0.5 | relative viability ([3]; first compound 2.53 µM): 0.524 | relative viability ([3]; first compound 8 µM): 0.602

HCC-366
relative viability ([1]; first compound 0.08 µM): 0.996 | relative viability ([1]; first compound 0.253 µM): 0.999 | relative viability ([1]; first compound 0.8 µM): 0.948 | relative viability ([1]; first compound 2.53 µM): 1.05 | relative viability ([1]; first compound 8 µM): 1.04 | relative viability ([2]; first compound 0.08 µM): 0.597 | relative viability ([2]; first compound 0.253 µM): 0.581 | relative viability ([2]; first compound 0.8 µM): 0.563 | relative viability ([2]; first compound 2.53 µM): 0.547 | relative viability ([2]; first compound 8 µM): 0.513 | relative viability (Shikonin + Tozasertib; first compound 0.01 µM): 0.118 | relative viability (Shikonin + Tozasertib; first compound 0.1 µM): 0.103 | relative viability (Shikonin + Tozasertib; first compound 0.3162 µM): 0.166 | relative viability (Shikonin + Tozasertib; first compound 1 µM): 0.114 | relative viability ([3]; first compound 0.08 µM): 0.89 | relative viability ([3]; first compound 0.253 µM): 0.939 | relative viability ([3]; first compound 0.8 µM): 0.975 | relative viability ([3]; first compound 2.53 µM): 0.9 | relative viability ([3]; first compound 8 µM): 0.867

HCC-827
relative viability ([1]; first compound 0.08 µM): 1.08 | relative viability ([1]; first compound 0.253 µM): 0.969 | relative viability ([1]; first compound 0.8 µM): 0.668 | relative viability ([1]; first compound 2.53 µM): 1.02 | relative viability ([1]; first compound 8 µM): 0.993 | relative viability ([2]; first compound 0.08 µM): 0.936 | relative viability ([2]; first compound 0.253 µM): 0.904 | relative viability ([2]; first compound 2.53 µM): 0.892 | relative viability ([2]; first compound 8 µM): 0.89 | relative viability (Shikonin + Tozasertib; first compound 0.01 µM): 0.452 | relative viability (Shikonin + Tozasertib; first compound 0.1 µM): 0.456 | relative viability (Shikonin + Tozasertib; first compound 0.3162 µM): 0.432 | relative viability (Shikonin + Tozasertib; first compound 1 µM): 0.453 | relative viability ([3]; first compound 0.08 µM): 0.907 | relative viability ([3]; first compound 0.253 µM): 1.07 | relative viability ([3]; first compound 2.53 µM): 0.989 | relative viability ([3]; first compound 8 µM): 0.91

HOP-62
relative viability ([1]; first compound 0.08 µM): 0.599 | relative viability ([1]; first compound 0.253 µM): 0.854 | relative viability ([1]; first compound 0.8 µM): 0.132 | relative viability ([1]; first compound 2.53 µM): 0.605 | relative viability ([1]; first compound 8 µM): 0.361 | relative viability ([2]; first compound 0.08 µM): 0.859 | relative viability ([2]; first compound 0.253 µM): 0.924 | relative viability ([2]; first compound 0.8 µM): 0.989 | relative viability ([2]; first compound 2.53 µM): 0.896 | relative viability ([2]; first compound 8 µM): 0.768 | relative viability (Shikonin + Tozasertib; first compound 0.01 µM): 0.369 | relative viability (Shikonin + Tozasertib; first compound 0.1 µM): 0.407 | relative viability (Shikonin + Tozasertib; first compound 0.3162 µM): 0.369 | relative viability (Shikonin + Tozasertib; first compound 1 µM): 0.38 | relative viability ([3]; first compound 0.08 µM): 0.974 | relative viability ([3]; first compound 0.253 µM): 1.23 | relative viability ([3]; first compound 0.8 µM): 1.02 | relative viability ([3]; first compound 2.53 µM): 1.06 | relative viability ([3]; first compound 8 µM): 0.945

IA-LM
relative viability ([1]; first compound 0.08 µM): 0.81 | relative viability ([1]; first compound 0.253 µM): 0.693 | relative viability ([1]; first compound 0.8 µM): 0.752 | relative viability ([1]; first compound 2.53 µM): 0.689 | relative viability ([1]; first compound 8 µM): 0.712 | relative viability ([2]; first compound 0.08 µM): 0.318 | relative viability ([2]; first compound 0.253 µM): 0.559 | relative viability ([2]; first compound 0.8 µM): 0.413 | relative viability ([2]; first compound 2.53 µM): 0.443 | relative viability ([2]; first compound 8 µM): 0.432 | relative viability ([3]; first compound 0.08 µM): 1.01 | relative viability ([3]; first compound 0.253 µM): 1.28 | relative viability ([3]; first compound 0.8 µM): 1.14 | relative viability ([3]; first compound 2.53 µM): 1.2 | relative viability ([3]; first compound 8 µM): 0.99

LC-2-ad
relative viability ([1]; first compound 0.08 µM): 0.968 | relative viability ([1]; first compound 0.253 µM): 1.2 | relative viability ([1]; first compound 0.8 µM): 0.65 | relative viability ([1]; first compound 2.53 µM): 0.978 | relative viability ([1]; first compound 8 µM): 0.878 | relative viability ([2]; first compound 0.08 µM): 0.886 | relative viability ([2]; first compound 0.253 µM): 0.856 | relative viability ([2]; first compound 0.8 µM): 0.818 | relative viability ([2]; first compound 2.53 µM): 0.79 | relative viability ([2]; first compound 8 µM): 0.824 | relative viability (Shikonin + Tozasertib; first compound 0.01 µM): 0.486 | relative viability (Shikonin + Tozasertib; first compound 0.1 µM): 0.392 | relative viability (Shikonin + Tozasertib; first compound 0.3162 µM): 0.485 | relative viability (Shikonin + Tozasertib; first compound 1 µM): 0.435 | relative viability ([3]; first compound 0.08 µM): 0.895 | relative viability ([3]; first compound 0.253 µM): 0.9 | relative viability ([3]; first compound 0.8 µM): 0.894 | relative viability ([3]; first compound 2.53 µM): 0.899 | relative viability ([3]; first compound 8 µM): 0.9

LCLC-97TM1
relative viability ([1]; first compound 0.08 µM): 0.681 | relative viability ([1]; first compound 0.253 µM): 0.686 | relative viability ([1]; first compound 0.8 µM): 0.493 | relative viability ([1]; first compound 2.53 µM): 0.422 | relative viability ([1]; first compound 8 µM): 0.631 | relative viability ([2]; first compound 0.08 µM): 0.195 | relative viability ([2]; first compound 0.8 µM): 0.133 | relative viability ([2]; first compound 2.53 µM): 0.158 | relative viability ([2]; first compound 8 µM): 0.191 | relative viability (Shikonin + Tozasertib; first compound 0.01 µM): 0.254 | relative viability (Shikonin + Tozasertib; first compound 0.1 µM): 0.21 | relative viability (Shikonin + Tozasertib; first compound 0.3162 µM): 0.222 | relative viability (Shikonin + Tozasertib; first compound 1 µM): 0.17 | relative viability ([3]; first compound 0.08 µM): 0.927 | relative viability ([3]; first compound 0.253 µM): 0.821 | relative viability ([3]; first compound 0.8 µM): 1.02 | relative viability ([3]; first compound 2.53 µM): 0.999 | relative viability ([3]; first compound 8 µM): 0.868

LK-2
relative viability ([2]; first compound 0.08 µM): 0.678 | relative viability ([2]; first compound 0.253 µM): 0.405 | relative viability ([2]; first compound 0.8 µM): 0.496 | relative viability ([2]; first compound 2.53 µM): 0.554 | relative viability ([2]; first compound 8 µM): 0.509 | relative viability (Shikonin + Tozasertib; first compound 0.01 µM): 0.178 | relative viability (Shikonin + Tozasertib; first compound 0.1 µM): 0.154 | relative viability (Shikonin + Tozasertib; first compound 0.3162 µM): 0.165 | relative viability (Shikonin + Tozasertib; first compound 1 µM): 0.154 | relative viability ([3]; first compound 0.08 µM): 1.36 | relative viability ([3]; first compound 0.253 µM): 0.816 | relative viability ([3]; first compound 0.8 µM): 1.36 | relative viability ([3]; first compound 2.53 µM): 1.2 | relative viability ([3]; first compound 8 µM): 1.44

NCI-H358
relative viability ([2]; first compound 0.08 µM): 0.775 | relative viability ([2]; first compound 0.253 µM): 0.814 | relative viability ([2]; first compound 0.8 µM): 0.786 | relative viability ([2]; first compound 2.53 µM): 0.823 | relative viability ([2]; first compound 8 µM): 0.668 | relative viability (Shikonin + Tozasertib; first compound 0.01 µM): 0.104 | relative viability (Shikonin + Tozasertib; first compound 0.1 µM): 0.102 | relative viability (Shikonin + Tozasertib; first compound 0.3162 µM): 0.0979 | relative viability (Shikonin + Tozasertib; first compound 1 µM): 0.0975 | relative viability ([3]; first compound 0.08 µM): 0.548 | relative viability ([3]; first compound 0.253 µM): 0.63 | relative viability ([3]; first compound 0.8 µM): 0.67 | relative viability ([3]; first compound 2.53 µM): 0.662 | relative viability ([3]; first compound 8 µM): 0.58
